For this assay, the system named is 171881-019-R-J1-PDC complex spheroid growth, % test/control. Kind of assay: Anticancer human tumor 171881-019-R-J1-PDC patient-derived invasive breast carcinoma cell line growth inhibition [Asc]. As to conditions: for viability, T/C: stronger effect = lower value. In a few lines: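 Stromal components (HUVEC and hMSC) are co-assembled with the cancer cells into multicellular spheroids. Drugs are then added singly or paired, at concentrations falling by half-log increments from a clinically achievable maximum, capped at 10 microM without known Cmax.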

The results in this text go back to PubChem BioAssay AID1963428 (Molecular Pharmacology Branch, DTP, NCI, 2024).

Structures are written as SMILES. Values joined by “and” are separate entries in the source; they are usually repeats but may differ in a detail not shown here. Equal values may be shown once. Where only a bound is given, the exact number is not on record here.
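Throughout, for viability, T/C: spheroids exposed to compounds for 7 days.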

One may read the IC50 as the concentration that inhibits the measured activity by half. The viability, T/C is the result in the treated group divided by that in the control group, in per cent. Turning to `NC1CCC(NC2CC2c2ccccc2)CC1` (centres undefined) + Cc1c(S(C)(=O)=O)c(-c2cc(F)cc(N3CCN(c4ccc(NS(=O)(=O)c5ccc(NC(CCN6CCC(C(=O)OCCCP(=O)(O)O)CC6)CSc6ccccc6)c(S(=O)(=O)C(F)(F)F)c5)cc4)CC3)c2)c(-c2ccc(Cl)cc2)n1C(C)C, the 50% inhibitory concentration (IC50) (curve of first compound, second compound 0.1 µM) is more than 100 nM; the half-inhibitory concentration (IC50) (curve of first compound, second compound 0.316 µM) is more than 100 nM; the IC50 (curve of first compound, second compound 1 µM) was more than 100 nM; the IC50 (curve of first compound, second compound 3.16 µM) is more than 100 nM; the IC50 (curve of first compound, second compound 10 µM) was more than 100 nM. For the same compound, the viability, T/C by setting is: (second compound 0.1 µM, first compound 0.000316 µM) 85.6%; (second compound 0.1 µM, first compound 0.001 µM) 83%; (second compound 0.1 µM, first compound 0.00316 µM) 85.6%; (second compound 0.1 µM, first compound 0.01 µM) 81%; (second compound 0.1 µM, first compound 0.0316 µM) 88.7%; (second compound 0.1 µM, first compound 0.1 µM) 91.8%. The viability, T/C is 99.9% (second compound 0.316 µM, first compound 0.000316 µM); 107% (second compound 0.316 µM, first compound 0.001 µM); 90.5% (second compound 0.316 µM, first compound 0.00316 µM); 88.2% (second compound 0.316 µM, first compound 0.01 µM); 96% (second compound 0.316 µM, first compound 0.0316 µM); 84.1% (second compound 0.316 µM, first compound 0.1 µM). The viability, T/C runs as follows: (second compound 1 µM, first compound 0.000316 µM) 97.6%; (second compound 1 µM, first compound 0.001 µM) 101%; (second compound 1 µM, first compound 0.00316 µM) 91.5%; (second compound 1 µM, first compound 0.01 µM) 82.6%; (second compound 1 µM, first compound 0.0316 µM) 84%; (second compound 1 µM, first compound 0.1 µM) 92.4%. For the same compound, the viability, T/C runs as follows: (second compound 3.16 µM, first compound 0.000316 µM) 134%; (second compound 3.16 µM, first compound 0.001 µM) 99.3%; (second compound 3.16 µM, first compound 0.00316 µM) 93%; (second compound 3.16 µM, first compound 0.01 µM) 88.3%; (second compound 3.16 µM, first compound 0.0316 µM) 88.1%; (second compound 3.16 µM, first compound 0.1 µM) 104%. Further, the viability, T/C runs as follows: (second compound 10 µM, first compound 0.000316 µM) 154%; (second compound 10 µM, first compound 0.001 µM) 127%; (second compound 10 µM, first compound 0.00316 µM) 111%; (second compound 10 µM, first compound 0.01 µM) 115%; (second compound 10 µM, first compound 0.0316 µM) 121%; (second compound 10 µM, first compound 0.1 µM) 92.3%.

As to `O=C(c1cc(Cc2n[nH]c(=O)c3ccccc23)ccc1F)N1CCN(C(=O)C2CC2)CC1`, the viability, T/C is 88.5% and 96.6% and 106% (compound 0.0316 µM); 90.8% and 103% and 111% (compound 0.1 µM); 93.1% and 101% and 107% (compound 0.316 µM); 95.5% and 86% and 102% (compound 1 µM); 87.9% and 87.8% and 107% (compound 3.16 µM); 92.6% and 79.8% and 122% (compound 10 µM). For the same compound, under “curve of compound”, the IC50 is more than 10000 nM.

For `COc1c(OCCCN2CCOCC2)ccc2c3n(c(=NC(=O)c4cnc(N)nc4)nc12)CCN3` + CCN1C(C(=O)NC23CCC(C(=O)O)(CC2)CC3)C(c2cccc(Cl)c2F)C2(C(=O)Nc3cc(Cl)ccc32)C12CCCCC2, the IC50 (curve of first compound, second compound 0.03 µM) worked out at 35.7 nM; the concentration for half-maximal inhibition (IC50) (curve of first compound, second compound 0.0949 µM) was determined as 36.7 nM; the IC50 (curve of first compound, second compound 0.3 µM) was found to be 36.1 nM; the concentration for half-maximal inhibition (IC50) (curve of first compound, second compound 0.949 µM) worked out at 33.1 nM; the IC50 (curve of first compound, second compound 3 µM) came out at 29.7 nM. Also, the viability, T/C by setting is: (second compound 0.03 µM, first compound 0.00316 µM) 158%; (second compound 0.03 µM, first compound 0.01 µM) 118%; (second compound 0.03 µM, first compound 0.0316 µM) 48.1%; (second compound 0.03 µM, first compound 0.1 µM) 25.7%; (second compound 0.03 µM, first compound 0.316 µM) 3.58%; (second compound 0.03 µM, first compound 1 µM) 1.48%. The viability, T/C was 182% (second compound 0.0949 µM, first compound 0.00316 µM); 141% (second compound 0.0949 µM, first compound 0.01 µM); 55% (second compound 0.0949 µM, first compound 0.0316 µM); 13.6% (second compound 0.0949 µM, first compound 0.1 µM); 3.64% (second compound 0.0949 µM, first compound 0.316 µM); 1.16% (second compound 0.0949 µM, first compound 1 µM). Moreover, the viability, T/C is 143% (second compound 0.3 µM, first compound 0.00316 µM); 133% (second compound 0.3 µM, first compound 0.01 µM); 53.8% (second compound 0.3 µM, first compound 0.0316 µM); 14.6% (second compound 0.3 µM, first compound 0.1 µM); 3.71% (second compound 0.3 µM, first compound 0.316 µM); 0.99% (second compound 0.3 µM, first compound 1 µM). Besides, the viability, T/C is, setting by setting: (second compound 0.949 µM, first compound 0.00316 µM) 159%; (second compound 0.949 µM, first compound 0.01 µM) 126%; (second compound 0.949 µM, first compound 0.0316 µM) 50.9%; (second compound 0.949 µM, first compound 0.1 µM) 12.8%; (second compound 0.949 µM, first compound 0.316 µM) 3.5%; (second compound 0.949 µM, first compound 1 µM) 1.21%. The viability, T/C runs as follows: (second compound 3 µM, first compound 0.00316 µM) 171%; (second compound 3 µM, first compound 0.01 µM) 122%; (second compound 3 µM, first compound 0.0316 µM) 46.1%; (second compound 3 µM, first compound 0.1 µM) 9.69%; (second compound 3 µM, first compound 0.316 µM) 2.19%; (second compound 3 µM, first compound 1 µM) 1.28%.

Regarding `Cc1nc(N2CCC3(CC2)COC(C)C3N)c(CO)nc1Sc1ccnc(N)c1Cl` (centres undefined), the viability, T/C was 123% and 94.5% and 97.3% (compound 0.00949 µM); 137% and 100% and 92% (compound 0.03 µM); 214% and 125% and 157% (compound 0.0949 µM); 268% and 160% and 188% (compound 0.3 µM); 225% and 150% and 152% (compound 0.949 µM); 168% and 117% (2×) (compound 3 µM). Also, the concentration for half-maximal inhibition (IC50) (curve of compound) was more than 3000 nM.
